# From ChEMBL document CHEMBL2321712 (ACS Med Chem Lett, 2013)
# Active and inactive are the calls of the source. The rule behind the calls is not given here.
# Assays:
# [1] = Terminal half life in mouse at 5 mg/kg, iv; format: ADME, organism-based; set-up: dose 5 mg/kg, route intravenous; conditions: in vivo, read-out: beta t1/2 (converted)
# [2] = Total clearance in mouse at 5 mg/kg, iv; format: ADME, organism-based; set-up: dose 5 mg/kg, route intravenous; conditions: in vivo
# HUVEC [3] = test: Antiangiogenic activity in HUVEC assessed as inhibition of PDGF-induced cell proliferation; format: functional, cell-based; conditions: Homo sapiens
# [4] = Antiproliferative activity against human melanoma cells by MTT assay; format: functional, cell-based; conditions: Melanoma cell
# [5] = Antiproliferative activity against human oral epidermoid cancer cells by MTT assay; format: functional, cell-based; conditions: Cancer cell lines
# [6] = Antiproliferative activity against human prostate cancer cells by MTT assay; format: functional, cell-based; conditions: Cancer cell lines
# [7] = Antiproliferative activity against human lung cancer cells by MTT assay; format: functional, cell-based; conditions: Cancer cell lines
# [8] = Antiproliferative activity against human breast cancer cells by MTT assay; format: functional, cell-based; conditions: Cancer cell lines
# [9] = Antiproliferative activity against human colon cancer cells by MTT assay; format: functional, cell-based; conditions: Cancer cell lines
# Aurora kinase A = target: T1, Aurora kinase A (Homo sapiens, UniProt O14965); test: Inhibition of aurora-A (unknown origin)
# T1 sequence (O14965 whole entry): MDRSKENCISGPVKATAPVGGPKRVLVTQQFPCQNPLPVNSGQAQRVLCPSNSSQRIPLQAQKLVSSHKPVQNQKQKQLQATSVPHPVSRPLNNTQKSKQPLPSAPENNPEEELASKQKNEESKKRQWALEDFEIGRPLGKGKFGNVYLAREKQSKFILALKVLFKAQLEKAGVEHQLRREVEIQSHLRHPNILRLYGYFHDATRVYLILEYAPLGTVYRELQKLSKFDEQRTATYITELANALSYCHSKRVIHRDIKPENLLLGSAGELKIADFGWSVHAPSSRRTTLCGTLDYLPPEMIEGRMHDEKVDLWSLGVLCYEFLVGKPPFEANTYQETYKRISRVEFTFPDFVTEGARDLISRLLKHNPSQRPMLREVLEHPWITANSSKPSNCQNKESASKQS
# [10] = target: Fibroblast growth factor receptor 1 (Homo sapiens, UniProt P11362); test: Inhibition of FGFR1 (unknown origin); format: single protein
# HUVEC [11] = test: Antiangiogenic activity in HUVEC assessed as inhibition of VEGF-induced cell proliferation; format: functional, cell-based; conditions: Homo sapiens
# HUVEC [12] = test: Antiangiogenic activity in HUVEC assessed as inhibition of bFGF-induced cell proliferation; format: functional, cell-based; conditions: Homo sapiens
# A549 [13] = test: Antitumor activity against human A549 cells xenografted in mouse assessed as increase in mouse survival at 25 to 50 mg/kg, po qd up to 32 days; format: functional; conditions: dose mg/kg 25-50
# HCT-116 [14] = test: Antitumor activity against human HCT116 cells xenografted in mouse assessed as increase in mouse survival at 25 to 50 mg/kg, po qd up to 32 days; format: functional; conditions: dose mg/kg 25-50
# LoVo = test: Antitumor activity against human LoVo cells xenografted in mouse assessed as increase in mouse survival at 25 to 50 mg/kg, po qd up to 32 days; format: functional; conditions: dose mg/kg 25-50
# MDA-MB-231 [15] = test: Antitumor activity against human MDA-MB-231 cells xenografted in mouse assessed as increase in mouse survival at 25 to 50 mg/kg, po qd up to 32 days; format: functional; conditions: dose mg/kg 25-50
# Mus musculus [16] = test: Toxicity in human A549 cells xenografted mouse assessed as changes in body weight and gross observation at 25 to 50 mg/kg, po qd up to 32 days; format: organism-based; set-up: dose 25-50 mg/kg, route oral; conditions: in vivo, 768 h
# Mus musculus [17] = test: Toxicity in human HCT116 cells xenografted mouse assessed as changes in body weight and gross observation at 25 to 50 mg/kg, po qd up to 32 days; format: organism-based, HCT-116; set-up: dose 25-50 mg/kg, route oral; conditions: in vivo, 768 h
# Mus musculus [18] = test: Toxicity in human LoVo cells xenografted mouse assessed as changes in body weight and gross observation at 25 to 50 mg/kg, po qd up to 32 days; format: organism-based; set-up: dose 25-50 mg/kg, route oral; conditions: in vivo, 768 h
# Mus musculus [19] = test: Toxicity in human MDA-MB-231 cells xenografted mouse assessed as changes in body weight and gross observation at 25 to 50 mg/kg, po qd up to 32 days; format: organism-based; set-up: dose 25-50 mg/kg, route oral; conditions: in vivo, 768 h
# A549 [20] = test: Antitumor activity against human A549 cells xenografted in mouse assessed as tumor growth inhibition at 1.56 mg/kg, po qd up to 32 days; format: functional, organism-based; set-up: dose 1.56 mg/kg
# HCT-116 [21] = test: Antitumor activity against human HCT116 cells xenografted in mouse assessed as tumor growth inhibition at 1.56 mg/kg, po qd up to 32 days; format: functional, organism-based; set-up: dose 1.56 mg/kg
# MDA-MB-231 [22] = test: Antitumor activity against human MDA-MB-231 cells xenografted in mouse assessed as tumor regression at 25 mg/kg, po qd up to 32 days; format: functional, organism-based; set-up: dose 25 mg/kg
# MDA-MB-231 [23] = test: Antitumor activity against human MDA-MB-231 cells xenografted in mouse assessed as tumor regression at 50 mg/kg, po qd up to 32 days; format: functional, organism-based; set-up: dose 50 mg/kg
# MDA-MB-231 [24] = test: Antitumor activity against human MDA-MB-231 cells xenografted in mouse assessed as tumor growth inhibition at 50 mg/kg, po qd up to 32 days; format: functional, organism-based; set-up: dose 50 mg/kg
# [25] = Oral bioavailability in monkey at 10 mg/kg; format: ADME, organism-based, Macaca mulatta; conditions: rhesus monkey, in vivo
# [26] = Cmax in monkey at 10 mg/kg, po; format: ADME, organism-based, Macaca mulatta; set-up: dose 10 mg/kg, route oral; conditions: rhesus monkey, in vivo
# [27] = AUC (0 to 24 hrs) in monkey at 10 mg/kg, po; format: ADME, organism-based, Macaca mulatta; set-up: time < 24 hr, dose 10 mg/kg, route oral; conditions: rhesus monkey, plasma
# [28] = Tmax in monkey at 10 mg/kg, po; format: ADME, organism-based, Macaca mulatta; set-up: dose 10 mg/kg, route oral; conditions: rhesus monkey, in vivo
# [29] = Oral bioavailability in rat at 50 mg/kg; format: ADME, organism-based; conditions: in vivo
# [30] = Cmax in rat at 50 mg/kg, po; format: ADME, organism-based; set-up: dose 50 mg/kg, route oral; conditions: in vivo
# [31] = AUC (0 to 24 hrs) in rat at 50 mg/kg, po; format: ADME, organism-based; set-up: time < 24 hr, dose 50 mg/kg, route oral; conditions: plasma
# [32] = Tmax in rat at 50 mg/kg, po; format: ADME, organism-based; set-up: dose 50 mg/kg, route oral; conditions: in vivo
# [33] = Oral bioavailability in mouse at 25 mg/kg; format: ADME, organism-based; conditions: in vivo
# [34] = AUC (0 to 24 hrs) in mouse at 25 mg/kg, po; format: ADME, organism-based; set-up: time < 24 hr, dose 25 mg/kg, route oral; conditions: plasma
# [35] = Cmax in mouse at 25 mg/kg, po; format: ADME, organism-based; set-up: dose 25 mg/kg, route oral; conditions: in vivo
# [36] = Tmax in mouse at 25 mg/kg, po; format: ADME, organism-based; set-up: dose 25 mg/kg, route oral; conditions: in vivo
# [37] = Volume of distribution at steady state in monkey at 1 mg/kg, iv; format: ADME, organism-based, Macaca mulatta; set-up: dose 1 mg/kg, route intravenous; conditions: rhesus monkey, in vivo, read-out: Vdss
# [38] = Terminal half life in monkey at 1 mg/kg, iv; format: ADME, organism-based, Macaca mulatta; set-up: dose 1 mg/kg, route intravenous; conditions: rhesus monkey, in vivo, read-out: beta t1/2 (converted)
# [39] = Total clearance in monkey at 1 mg/kg, iv; format: ADME, organism-based, Macaca mulatta; set-up: dose 1 mg/kg, route intravenous; conditions: rhesus monkey, in vivo
# [40] = Volume of distribution at steady state in rat at 5 mg/kg, iv; format: ADME, organism-based; set-up: dose 5 mg/kg, route intravenous; conditions: in vivo, read-out: Vdss
# [41] = Terminal half life in rat at 5 mg/kg, iv; format: ADME, organism-based; set-up: dose 5 mg/kg, route intravenous; conditions: in vivo, read-out: beta t1/2 (converted)
# [42] = Total clearance in rat at 5 mg/kg, iv; format: ADME, organism-based; set-up: dose 5 mg/kg, route intravenous; conditions: in vivo
# [43] = Volume of distribution at steady state in mouse at 5 mg/kg, iv; format: ADME, organism-based; set-up: dose 5 mg/kg, route intravenous; conditions: in vivo, read-out: Vdss
# 22Rv1 (Homo sapiens) = test: Antitumor activity against human 22Rv1 cells xenografted in mouse assessed as tumor growth inhibition at 25 to 50 mg/kg, po qd up to 32 days; conditions: dose mg/kg 25-50
# [44] = target: Cyclin-dependent kinase 4 (Homo sapiens, UniProt P11802); test: Inhibition of CDK4 (unknown origin); format: single protein
# [45] = target: Cyclin-dependent kinase 2 (Homo sapiens, UniProt P24941); test: Inhibition of CDK2 (unknown origin); format: single protein
# [46] = target: Vascular endothelial growth factor receptor 2 (Homo sapiens, UniProt P35968); test: Inhibition of KDR (unknown origin); format: single protein
# Sequence of Vascular endothelial growth factor receptor 2 (P35968 whole entry): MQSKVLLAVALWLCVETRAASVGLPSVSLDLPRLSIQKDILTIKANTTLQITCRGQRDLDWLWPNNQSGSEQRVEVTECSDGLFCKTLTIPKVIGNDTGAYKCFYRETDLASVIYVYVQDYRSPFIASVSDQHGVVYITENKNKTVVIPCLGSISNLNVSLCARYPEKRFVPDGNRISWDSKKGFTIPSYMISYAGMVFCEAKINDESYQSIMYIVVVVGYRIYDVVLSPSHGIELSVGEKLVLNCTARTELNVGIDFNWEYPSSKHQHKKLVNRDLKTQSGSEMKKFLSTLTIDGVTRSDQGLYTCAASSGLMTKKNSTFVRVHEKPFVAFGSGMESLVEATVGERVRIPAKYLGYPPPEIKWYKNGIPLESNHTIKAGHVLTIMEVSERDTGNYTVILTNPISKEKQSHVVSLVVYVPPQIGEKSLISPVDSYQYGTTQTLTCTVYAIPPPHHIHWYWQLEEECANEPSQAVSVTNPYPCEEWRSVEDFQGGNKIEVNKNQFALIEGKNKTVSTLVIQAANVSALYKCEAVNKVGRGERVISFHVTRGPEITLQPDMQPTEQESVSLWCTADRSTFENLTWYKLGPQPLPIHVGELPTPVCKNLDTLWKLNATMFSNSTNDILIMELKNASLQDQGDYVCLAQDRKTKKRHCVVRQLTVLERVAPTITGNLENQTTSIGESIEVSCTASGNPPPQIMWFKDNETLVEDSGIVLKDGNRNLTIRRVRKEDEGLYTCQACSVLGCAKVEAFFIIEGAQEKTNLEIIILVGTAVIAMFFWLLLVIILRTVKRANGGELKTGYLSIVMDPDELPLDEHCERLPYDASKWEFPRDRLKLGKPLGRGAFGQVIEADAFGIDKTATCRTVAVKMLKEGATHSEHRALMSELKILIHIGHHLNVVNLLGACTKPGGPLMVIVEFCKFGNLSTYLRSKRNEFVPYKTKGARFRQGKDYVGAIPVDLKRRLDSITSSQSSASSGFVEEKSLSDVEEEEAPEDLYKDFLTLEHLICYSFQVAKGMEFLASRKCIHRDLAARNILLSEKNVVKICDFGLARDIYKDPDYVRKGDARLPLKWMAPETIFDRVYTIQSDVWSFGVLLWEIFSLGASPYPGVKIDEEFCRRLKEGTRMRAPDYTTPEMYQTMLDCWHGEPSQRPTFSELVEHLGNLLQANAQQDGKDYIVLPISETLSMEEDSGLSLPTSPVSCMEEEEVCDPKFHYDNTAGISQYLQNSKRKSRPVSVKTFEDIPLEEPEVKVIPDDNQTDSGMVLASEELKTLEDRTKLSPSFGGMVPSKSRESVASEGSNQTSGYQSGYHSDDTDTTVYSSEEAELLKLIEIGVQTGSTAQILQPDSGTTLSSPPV
# Sequence of Fibroblast growth factor receptor 1 (P11362 whole entry): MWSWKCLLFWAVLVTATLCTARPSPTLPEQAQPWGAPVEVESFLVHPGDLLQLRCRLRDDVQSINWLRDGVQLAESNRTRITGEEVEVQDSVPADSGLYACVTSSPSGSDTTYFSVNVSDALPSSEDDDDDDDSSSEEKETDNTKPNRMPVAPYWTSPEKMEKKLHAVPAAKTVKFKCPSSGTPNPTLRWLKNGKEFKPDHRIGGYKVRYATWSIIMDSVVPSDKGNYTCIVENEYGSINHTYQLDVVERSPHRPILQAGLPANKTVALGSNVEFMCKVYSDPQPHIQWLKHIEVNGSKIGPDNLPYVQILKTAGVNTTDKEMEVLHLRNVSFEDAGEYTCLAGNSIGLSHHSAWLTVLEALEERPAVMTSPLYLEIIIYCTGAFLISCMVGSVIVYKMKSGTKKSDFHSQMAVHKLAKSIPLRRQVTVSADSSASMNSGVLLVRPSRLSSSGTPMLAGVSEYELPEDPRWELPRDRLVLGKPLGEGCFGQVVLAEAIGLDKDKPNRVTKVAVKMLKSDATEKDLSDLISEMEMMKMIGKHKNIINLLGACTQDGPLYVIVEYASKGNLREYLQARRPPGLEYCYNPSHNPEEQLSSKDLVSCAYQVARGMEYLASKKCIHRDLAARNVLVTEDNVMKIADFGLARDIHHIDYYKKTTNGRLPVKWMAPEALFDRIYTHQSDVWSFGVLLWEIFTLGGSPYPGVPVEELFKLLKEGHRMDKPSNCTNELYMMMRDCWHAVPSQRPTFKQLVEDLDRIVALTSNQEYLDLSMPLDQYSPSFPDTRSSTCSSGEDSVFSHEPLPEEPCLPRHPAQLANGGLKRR
# Sequence of Cyclin-dependent kinase 4 (P11802 whole entry): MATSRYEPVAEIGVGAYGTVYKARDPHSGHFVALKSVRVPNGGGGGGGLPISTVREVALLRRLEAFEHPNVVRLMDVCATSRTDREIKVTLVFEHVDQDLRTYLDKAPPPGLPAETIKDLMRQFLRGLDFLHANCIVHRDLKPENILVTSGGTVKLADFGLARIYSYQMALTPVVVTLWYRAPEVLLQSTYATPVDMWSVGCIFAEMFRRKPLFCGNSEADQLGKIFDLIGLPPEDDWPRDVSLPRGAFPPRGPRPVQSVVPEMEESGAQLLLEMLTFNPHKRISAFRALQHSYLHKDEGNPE
compound,measurement,setting,value
COc1cc2c(cc1F)C(c1ccccc1Cl)=Nc1c(n[nH]c1C)N2 [RG-1530],half-life,[1],4.32 h
same,clearance,[2],8.8 mL/min/kg
same,IC50,HUVEC [3],688 nM
same,IC50,[4],200 nM
same,IC50,[5],200 nM
same,IC50,[6],200 nM
same,IC50,[7],200 nM
same,IC50,[8],200 nM
same,IC50,[9],200 nM
same,IC50,Aurora kinase A,58 nM
same,IC50,[10],28 nM
same,IC50,HUVEC [11],49 nM
same,IC50,HUVEC [12],118 nM
same,Survival,A549 [13],>=25%
same,Survival,HCT-116 [14],>=25%
same,Survival,LoVo,>=25%
same,Survival,MDA-MB-231 [15],>=25%
same,Activity,Mus musculus [16],Non-toxic
same,Activity,Mus musculus [17],Non-toxic
same,Activity,Mus musculus [18],Non-toxic
same,Activity,Mus musculus [19],Non-toxic
same,TGI,A549 [20],inactive
same,TGI,HCT-116 [21],inactive
same,Activity,MDA-MB-231 [22],Active
same,Activity,MDA-MB-231 [23],Active
same,TGI,MDA-MB-231 [24],Active
same,bioavailability,[25],22.1%
same,Cmax,[26],406 ng/mL
same,AUC(0-t) at 24 h,[27],4820 ng·h/mL
same,Tmax,[28],4 h
same,bioavailability,[29],88.7%
same,Cmax,[30],5360 ng/mL
same,AUC(0-t) at 24 h,[31],86300 ng·h/mL
same,Tmax,[32],4 h
same,bioavailability,[33],96.9%
same,AUC(0-t) at 24 h,[34],46700 ng·h/mL
same,Cmax,[35],5070 ng/mL
same,Tmax,[36],2 h
same,Vd,[37],1.59 L/kg
same,half-life,[38],3.83 h
same,clearance,[39],7.82 mL/min/kg
same,Vd,[40],3.22 L/kg
same,half-life,[41],4.7 h
same,clearance,[42],8.78 mL/min/kg
same,Vd,[43],3.12 L/kg
same,TGI,22Rv1 (Homo sapiens),98%
Cc1[nH]nc2c1N=C(c1ccccc1Cl)c1cc(N)ccc1N2,IC50,[44],303 nM
same,IC50,[10],50 nM
same,IC50,[45],88 nM
same,IC50,[46],34 nM
